Several values for one entry are separate records, joined by “and”; a condition that tells them apart may be missing. Identical values can stand only once.
Legend:
[1] = tested on: human primary hepatocytes; assay: Intracellular lipid accumulation (steatosis) in primary human hepatocytes co-treated with sFA+TNF-α, LipidTOX fluorescence microscopy after 72h; format: cell-based; design: Rx effect (lipid): scale not given here; details: for Rx effect (Lipid: total lipid area subtracted from baseline sFA+TNFa, normalized to nuclei count): 72 h; for Rx effect (lipid): donor 2
Protocol: Hepatocyte lipotoxicity appears to be a central driver of hepatic cellular injury via oxidative stress and endoplasmic reticulum (ER) stress. The ability of amino acids combined to therapeutics agents (Rx) to influence steatosis (lipid accumulation) and inflammation in hepatocytes was assessed using human primary hepatocytes purchased from two sources: Lonza and Sekisui Xenotech. […] After 6 hours, cells were washed twice and incubated overnight at 37° C., 5% CO2 in hepatocytes plating media. On day 1, cells were washed twice and incubated for 24h in Hepatocytes defined medium (Corning) supplemented with 2mM Glutamax (Gibco), and 1x Penicillin/Streptomycin in the same conditions described above. […] The values are published in the Human Metabolome Database (Wishart DS, Tzur D, Knox C, et al., HMDB: the Human Metabolome Database. Nucleic Acids Res. 2007 Jan; 35(Database issue):[…]-6. 17202168; which is hereby incorporated by reference in its entirety). […] After 24 hours incubation, media was removed for chemokine analysis (MCP1) and the same co treatment was reapplied for an additional 48 hours for a total of 72 hours. After 72 hours, cells were washed twice with PBS 1x (Gibco), fixed with 4% Paraformaldehyde, and washed twice with PBS 1x (100 ul). […] The LipidTOXTM neutral lipid stain has an extremely high affinity for neutral lipid droplets that was detected by fluorescence microscopy using a high content imager (Molecular Devices). Lipid was normalized to the specific per well cell density determined by nuclei count.

[2] = tested on: MCP1/CCL2 secretion; assay: MCP1/CCL2 secretion by primary human hepatocytes co-treated with sFA+TNF-α, ELISA after 24h; format: cell-based; design: Rx effect / Rx effect (MCP1): scale not given here; details: for Rx effect: MCP1; for MCP1 level / MCP1 secretion compared to baseline (sFA+TNF-α): Results 1, donors 1 and 2, AA compositions at 20X; for MCP1 level / MCP1 secretion level compared to the baseline (sFA+TNF-α): Results 2, donor 2
Protocol: Hepatocyte lipotoxicity appears to be a central driver of hepatic cellular injury via oxidative stress and endoplasmic reticulum (ER) stress. The ability of amino acids combined to therapeutics agents (Rx) to influence steatosis (lipid accumulation) and inflammation in hepatocytes was assessed using human primary hepatocytes purchased from two sources: Lonza and Sekisui Xenotech. Primary hepatocytes from two healthy human donor were seeded on day 0 at density of 60000 cells in 96 well optical microplates (Thermofisher) in hepatocyte plating media (William's E medium (Gibco) supplemented with 10% heat-inactivated FBS (Atlanta Bio), 2mM Glutamax (Gibco), and 0.2% Primocin (InVivoGen) and incubated for 6 hours at 37° C., 5% CO2. After 6 hours, cells were washed twice and incubated overnight at 37° C., 5% CO2 in hepatocytes plating media. On day 1, cells were washed twice and incubated for 24h in Hepatocytes defined medium (Corning) supplemented with 2mM Glutamax (Gibco), and 1x Penicillin/Streptomycin in the same conditions described above. On day 2, cells were washed twice with DPBS 1X (Gibco) and maintained in amino acid-free WEM (US Biologicals) containing a defined custom amino acid concentration based on the mean physiological concentrations in blood. The values are published in the Human Metabolome Database (Wishart DS, Tzur D, Knox C, et al., HMDB: the Human Metabolome Database. Nucleic Acids Res. 2007 Jan; 35(Database issue):[…]-6. 17202168; which is hereby incorporated by reference in its entirety). […] Cells were maintained in this defined pretreatment media for 24 hours at 37° C., 5% CO2. […] After 24 hours incubation, media was removed for chemokine analysis (MCP1) and the same co treatment was reapplied for an additional 48 hours for a total of 72 hours. Human CCL2 (MCP-1) was measured by ELISA (Human […] DuoSet ELISA, R&D Systems) at 1/20 dilution in 1X Reagent Diluent (Reagent Ancillary Kit 2, R&D Systems). Lipid was normalized to the specific per well cell density determined by nuclei count.

[3] = Results 1, donors 1 and 2, AA compositions at 20X

SMILES: O=C(O)c1ccnc(N2CC(O)(c3ccc(OCc4c(-c5c(Cl)cccc5Cl)noc4C4CC4)cc3Cl)C2)c1 [Cilofexor, 2-(3-(2-chloro-4-((5-cyclopropyl-3-(2,6-dichlorophenyl)isoxazol-4-yl)methoxy)phenyl)-3-hydroxyazetidin-1-yl)isonicotinic acid]
- Rx effect (Lipid: total lipid area subtracted from baseline sFA+TNFa, normalized to nuclei count) ([1]; Donor 1, Rx Conc. 0.031 µM): 0.019
- Rx effect (Lipid: total lipid area subtracted from baseline sFA+TNFa, normalized to nuclei count) ([1]; Donor 1, Rx Conc. 0.125 µM): 0.072
- Rx effect (Lipid: total lipid area subtracted from baseline sFA+TNFa, normalized to nuclei count) ([1]; Donor 1, Rx Conc. 0.500 µM): 0.027
- Rx effect (Lipid: total lipid area subtracted from baseline sFA+TNFa, normalized to nuclei count) ([1]; Donor 1, Rx Conc. 2.000 µM): 0.195
- Rx effect (Lipid: total lipid area subtracted from baseline sFA+TNFa, normalized to nuclei count) ([1]; Donor 2, Rx Conc. 0.031 µM): -0.049
- Rx effect (Lipid: total lipid area subtracted from baseline sFA+TNFa, normalized to nuclei count) ([1]; Donor 2, Rx Conc. 0.125 µM): 0.031
- Rx effect (Lipid: total lipid area subtracted from baseline sFA+TNFa, normalized to nuclei count) ([1]; Donor 2, Rx Conc. 0.500 µM): 0.104
- Rx effect (Lipid: total lipid area subtracted from baseline sFA+TNFa, normalized to nuclei count) ([1]; Donor 2, Rx Conc. 2.000 µM): 0.050
- lipid level compared to baseline (sFA+TNFa) [1, 3]: no changes
- lipid level compared to baseline (sFA+TNFa) ([1]; Results 2, donor 2): no changes in lipid level
- Rx effect (lipid) ([1]; Rx 0.0313 µM): -0.110
- Rx effect (lipid) ([1]; Rx 0.125 µM): 0.001
- Rx effect (lipid) ([1]; Rx 0.5 µM): 0.088
- Rx effect (lipid) ([1]; Rx 2 µM): 0.080
- Rx effect ([2]; donor 1, Rx 0.031 µM): -0.009
- Rx effect ([2]; donor 1, Rx 0.125 µM): 0.582
- Rx effect ([2]; donor 1, Rx 0.500 µM): 1.210
- Rx effect ([2]; donor 1, Rx 2.000 µM): 1.898
- Rx effect ([2]; donor 2, Rx 0.125 µM): 0.28
- Rx effect ([2]; donor 2, Rx 0.500 µM): 0.47
- Rx effect ([2]; donor 2, Rx 2.000 µM): 0.69 and 0.695
- MCP1 level / MCP1 secretion compared to baseline (sFA+TNF-α) [2]: slight increase
- MCP1 level / MCP1 secretion level compared to the baseline (sFA+TNF-α) [2]: no change or a slight increase in MCP1 secretion level
- Rx effect (MCP1) ([2]; donor 2, Rx 0.0313 µM): -0.265
- Rx effect (MCP1) ([2]; donor 2, Rx 0.125 µM): 0.229
- Rx effect (MCP1) ([2]; donor 2, Rx 0.5 µM): 0.525
- Rx effect (MCP1) ([2]; donor 2, Rx 2 µM): 0.301

SMILES: COc1ccccc1[C@H](Cn1c(=O)n(C(C)(C)C(=O)O)c(=O)c2c(C)c(-c3ncco3)sc21)OC1CCOCC1 [Firsocostat, (R)-2-(1-(2-(2-methoxyphenyl)-2-((tetrahydro-2H-pyran-4-yl)oxy)ethyl)-5-methyl-6-(oxazol-2-yl)-2,4-dioxo-1,4-dihydrothieno[2,3-d]pyrimidin-3(2H)-yl)-2-methylpropanoic acid]
- Rx effect (Lipid: total lipid area subtracted from baseline sFA+TNFa, normalized to nuclei count) ([1]; Donor 1, Rx Conc. 0.063 µM): -0.210
- Rx effect (Lipid: total lipid area subtracted from baseline sFA+TNFa, normalized to nuclei count) ([1]; Donor 1, Rx Conc. 1.000 µM): -0.412
- Rx effect (Lipid: total lipid area subtracted from baseline sFA+TNFa, normalized to nuclei count) ([1]; Donor 1, Rx Conc. 4.000 µM): -0.317
- Rx effect (Lipid: total lipid area subtracted from baseline sFA+TNFa, normalized to nuclei count) ([1]; Donor 2, Rx Conc. 0.063 µM): -0.246
- Rx effect (Lipid: total lipid area subtracted from baseline sFA+TNFa, normalized to nuclei count) ([1]; Donor 2, Rx Conc. 1.000 µM): -0.449
- Rx effect (Lipid: total lipid area subtracted from baseline sFA+TNFa, normalized to nuclei count) ([1]; Donor 2, Rx Conc. 4.000 µM): -0.485
- lipid level compared to baseline (sFA+TNFa) [1, 3]: slight reduction in lipid level
- lipid level compared to baseline (sFA+TNFa) ([1]; Results 2, donor 2): slight reduction in lipid level
- Rx effect (lipid) ([1]; Rx 0.0625 µM): -0.147
- Rx effect (lipid) ([1]; Rx 1 µM): -0.404
- Rx effect (lipid) ([1]; Rx 4 µM): -0.458
- Rx effect ([2]; donor 1, Rx 0.063 µM): -0.233
- Rx effect ([2]; donor 1, Rx 1.000 µM): -0.827
- Rx effect ([2]; donor 1, Rx 4.000 µM): -0.479
- Rx effect ([2]; donor 2, Rx 0.063 µM): -0.319
- Rx effect ([2]; donor 2, Rx 1.000 µM): -0.614
- Rx effect ([2]; donor 2, Rx 4.000 µM): -0.775
- MCP1 level / MCP1 secretion compared to baseline (sFA+TNF-α) [2]: slight reduction in MCP1 secretion
- MCP1 level / MCP1 secretion level compared to the baseline (sFA+TNF-α) [2]: no change or a slight reduction in MCP1 secretion level
- Rx effect (MCP1) ([2]; donor 2, Rx 0.0625 µM): -0.147
- Rx effect (MCP1) ([2]; donor 2, Rx 1 µM): -0.682
- Rx effect (MCP1) ([2]; donor 2, Rx 4 µM): -0.510

SMILES: Cc1cc(F)c(C(=O)Nc2cccc(-c3nncn3C(C)C)n2)cc1-n1cnc(C2CC2)c1 [Selonsertib, 5-(4-cyclopropyl-1H-imidazol-1-yl)-2-fluoro-N-(6-(4-isopropyl-4H-1,2,4-triazol-3-yl)pyridin-2-yl)-4-methylbenzamide]
- Rx effect (Lipid: total lipid area subtracted from baseline sFA+TNFa, normalized to nuclei count) ([1]; Donor 1, Rx Conc. 0.063 µM): -0.060
- Rx effect (Lipid: total lipid area subtracted from baseline sFA+TNFa, normalized to nuclei count) ([1]; Donor 1, Rx Conc. 1.000 µM): -0.154
- Rx effect (Lipid: total lipid area subtracted from baseline sFA+TNFa, normalized to nuclei count) ([1]; Donor 1, Rx Conc. 4.000 µM): -0.152
- Rx effect (Lipid: total lipid area subtracted from baseline sFA+TNFa, normalized to nuclei count) ([1]; Donor 2, Rx Conc. 0.063 µM): -0.096
- Rx effect (Lipid: total lipid area subtracted from baseline sFA+TNFa, normalized to nuclei count) ([1]; Donor 2, Rx Conc. 1.000 µM): -0.164
- Rx effect (Lipid: total lipid area subtracted from baseline sFA+TNFa, normalized to nuclei count) ([1]; Donor 2, Rx Conc. 4.000 µM): -0.307
- lipid level compared to baseline (sFA+TNFa) [1, 3]: slight reduction in lipid level
- lipid level compared to baseline (sFA+TNFa) ([1]; Results 2, donor 2): slight reduction in lipid level
- Rx effect (lipid) ([1]; Rx 0.0625 µM): -0.024
- Rx effect (lipid) ([1]; Rx 1 µM): -0.156
- Rx effect (lipid) ([1]; Rx 4 µM): -0.178
- Rx effect ([2]; donor 1, Rx 0.063 µM): -0.167
- Rx effect ([2]; donor 1, Rx 1.000 µM): -0.503
- Rx effect ([2]; donor 1, Rx 4.000 µM): -0.552
- Rx effect ([2]; donor 2, Rx 0.063 µM): -0.306
- Rx effect ([2]; donor 2, Rx 1.000 µM): -0.152
- Rx effect ([2]; donor 2, Rx 4.000 µM): -0.462
- MCP1 level / MCP1 secretion compared to baseline (sFA+TNF-α) [2]: slight reduction in MCP1 secretion
- MCP1 level / MCP1 secretion level compared to the baseline (sFA+TNF-α) [2]: no change or a slight reduction in MCP1 secretion level
- Rx effect (MCP1) ([2]; donor 2, Rx 0.0625 µM): 0.004
- Rx effect (MCP1) ([2]; donor 2, Rx 1 µM): -0.411
- Rx effect (MCP1) ([2]; donor 2, Rx 4 µM): -0.463

SMILES: O=C(O)c1cc(F)c2nc(N3C4CC[C@H]3C[C@H](OCc3c(-c5ccccc5OC(F)(F)F)noc3C3CC3)C4)sc2c1 [Tropifexor, 2-[(3-endo)-3-[[5-cyclopropyl-3-[2-(trifluoromethoxy)phenyl]-4-isoxazolyl]methoxy]-8-azabicyclo[3.2.1]oct-8-yl]-4-fluoro-6-benzothiazolecarboxylic acid]
- Rx effect (Lipid: total lipid area subtracted from baseline sFA+TNFa, normalized to nuclei count) ([1]; Donor 1, Rx Conc. 0.063 µM): 0.169
- Rx effect (Lipid: total lipid area subtracted from baseline sFA+TNFa, normalized to nuclei count) ([1]; Donor 1, Rx Conc. 1.000 µM): 0.185
- Rx effect (Lipid: total lipid area subtracted from baseline sFA+TNFa, normalized to nuclei count) ([1]; Donor 1, Rx Conc. 4.000 µM): 0.214
- Rx effect (Lipid: total lipid area subtracted from baseline sFA+TNFa, normalized to nuclei count) ([1]; Donor 2, Rx Conc. 0.063 µM): 0.132
- Rx effect (Lipid: total lipid area subtracted from baseline sFA+TNFa, normalized to nuclei count) ([1]; Donor 2, Rx Conc. 1.000 µM): 0.083
- Rx effect (Lipid: total lipid area subtracted from baseline sFA+TNFa, normalized to nuclei count) ([1]; Donor 2, Rx Conc. 4.000 µM): 0.049
- lipid level compared to baseline (sFA+TNFa) [1, 3]: slight increase in lipid level
- Rx effect ([2]; donor 1, Rx 0.063 µM): 0.956
- Rx effect ([2]; donor 1, Rx 1.000 µM): 0.877
- Rx effect ([2]; donor 1, Rx 4.000 µM): 0.658
- Rx effect ([2]; donor 2, Rx 0.063 µM): -0.16
- MCP1 level / MCP1 secretion compared to baseline (sFA+TNF-α) [2]: slight increase

— patent publication US20230105984A1, “COMPOSITIONS AND METHODS FOR THE TREATMENT OF LIVER DISEASES AND DISORDERS” (AXCELLA HEALTH INC., priority 2019, published 2023)
